Assay results published in publication PMC10046961, “High-Throughput Screening Assay for Detecting Drug-Induced Changes in Synchronized Neuronal Oscillations and Potential Seizure Risk Based on Ca^2+ Fluorescence Measurements in Human Induced Pluripotent Stem Cell (hiPSC)-Derived Neuronal 2D and 3D Cultures” (Cells, 2023).
Where two headings read alike, the source gives them in different places.

Tests used:
[1] = test system: hiPSC-derived neurons co-cultured with human primary astrocytes in 2D; test: Ca2+ transient oscillation assay (FDSS), 2D co-culture; assay type: cell-based; details: Homo sapiens, 1 h, 60 min
How it was run: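 Cultures were 10,000 CW50065 hiPSC excitatory neurons plus 2500 primary human astrocytes per well. Recordings used Cal-520 dye in HBSS/HEPES/glucose at 37 °C, with a 470/540 nm read at 2 Hz. Oscillations were stabilized with 0.04% DMSO, read for 20 min, then read again 60 min after compound addition (final DMSO 0.1%).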

[2] = test system: hiPSC-derived neurons co-cultured with human primary astrocytes in 3D; test: Ca2+ transient oscillation assay (FDSS), 3D spheroids; assay type: cell-based; details: 60 min
How it was run: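 Fura-2 fluorescence was read twice for 20 min each: a baseline 10 min after 0.04% DMSO, and again 60 min after compound addition at nominal final concentration. The 3D co-cultures (1:1 hiPSC neurons from a donor and human astrocytes, 8000 each) matured 5 weeks in BrainPhys medium after a 1-week differentiation.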

[3] = ref PharmaPendium, cited from earlier work
[4] = read-out: Area under the curve - 2D Mean
[5] = read-out: Peak amplitude - 2D Mean
[6] = read-out: Peak-to-peak interval - 2D Mean
[7] = Table 1, peak plasma concentration in men, free therapeutic Cmax

CC1(C)S[C@@H]2[C@H](NC(=O)[C@H](N)c3ccc(O)cc3)C(=O)N2[C@H]1C(=O)O [Amoxicillin]
activation at 0.11 µM [1, 4]: 38.3% | activation at 0.11 µM ([1]; read-out: Peak Number—2D Mean): -10.5% | activation at 0.11 µM [1, 5]: 19.3% | activation at 0.11 µM ([1]; read-out: Peak width - 2D Mean): 22.3% | activation at 0.11 µM [1, 6]: 27.3% | activation at 0.33 µM [1, 4]: 23.7% | activation at 0.33 µM ([1]; read-out: Peak Number—2D Mean): 8.3% | activation at 0.33 µM [1, 5]: 5% | activation at 0.33 µM ([1]; read-out: Peak width - 2D Mean): 25.7% | activation at 0.33 µM [1, 6]: 9.3% | activation at 1 µM [1, 4]: 45.8% | activation at 1 µM ([1]; read-out: Peak Number—2D Mean): 27.2% | activation at 1 µM [1, 5]: 8.3% | activation at 1 µM ([1]; read-out: Peak width - 2D Mean): 48% | activation at 1 µM [1, 6]: -16% | activation at 3 µM [1, 4]: 43% | activation at 3 µM ([1]; read-out: Peak Number—2D Mean): 16.2% | activation at 3 µM [1, 5]: 7.5% | activation at 3 µM ([1]; read-out: Peak width - 2D Mean): 47.7% | activation at 3 µM [1, 6]: -7.8% | Area under the curve - 3D Mean ([2]; 0.11 µM): 147.7 % change from baseline | Peak Number—3D Mean ([2]; 0.11 µM): −8.0 % change from baseline | Peak amplitude - 3D Mean ([2]; 0.11 µM): 136.9 % change from baseline | Peak width - 3D Mean ([2]; 0.11 µM): 4.7 % change from baseline | Peak-to-peak interval - 3D Mean ([2]; 0.11 µM): 12.1 % change from baseline | Area under the curve - 3D Mean ([2]; 0.33 µM): 145.7 % change from baseline | Peak Number—3D Mean ([2]; 0.33 µM): 1.4 % change from baseline | Peak amplitude - 3D Mean ([2]; 0.33 µM): 132.0 % change from baseline | Peak width - 3D Mean ([2]; 0.33 µM): 5.5 % change from baseline | Peak-to-peak interval - 3D Mean ([2]; 0.33 µM): 9.0 % change from baseline | Area under the curve - 3D Mean ([2]; 1 µM): 122.0 % change from baseline | Peak Number—3D Mean ([2]; 1 µM): 9.3 % change from baseline | Peak amplitude - 3D Mean ([2]; 1 µM): 130.1 % change from baseline | Peak width - 3D Mean ([2]; 1 µM): −4.5 % change from baseline | Peak-to-peak interval - 3D Mean ([2]; 1 µM): −5.5 % change from baseline | Area under the curve - 3D Mean ([2]; 3 µM): 125.7 % change from baseline | Peak Number—3D Mean ([2]; 3 µM): 18.3 % change from baseline | Peak amplitude - 3D Mean ([2]; 3 µM): 123.5 % change from baseline | Peak width - 3D Mean ([2]; 3 µM): 1.2 % change from baseline | Peak-to-peak interval - 3D Mean ([2]; 3 µM): −1.2 % change from baseline | Free Cmax [3, 7]: 3 to 32000 nM

CC(=O)Oc1ccccc1C(=O)O [Aspirin]
activation at 3.7 µM [1, 4]: 48.5% | activation at 3.7 µM ([1]; read-out: Peak Number—2D Mean): -10.2% | activation at 3.7 µM [1, 5]: 13.1% | activation at 3.7 µM ([1]; read-out: Peak width - 2D Mean): 43.6% | activation at 3.7 µM [1, 6]: 15.5% | activation at 11.11 µM [1, 4]: 25.7% | activation at 11.11 µM ([1]; read-out: Peak Number—2D Mean): 17.6% | activation at 11.11 µM [1, 5]: 4.2% | activation at 11.11 µM ([1]; read-out: Peak width - 2D Mean): 25.9% | activation at 11.11 µM [1, 6]: 1.8% | activation at 33.33 µM [1, 4]: 37.6% | activation at 33.33 µM ([1]; read-out: Peak Number—2D Mean): 10.1% | activation at 33.33 µM [1, 5]: 6.2% | activation at 33.33 µM ([1]; read-out: Peak width - 2D Mean): 38.3% | activation at 33.33 µM [1, 6]: -0.5% | activation at 100 µM [1, 4]: 30% | activation at 100 µM ([1]; read-out: Peak Number—2D Mean): 27.9% | activation at 100 µM [1, 5]: 3.9% | activation at 100 µM ([1]; read-out: Peak width - 2D Mean): 32.1% | activation at 100 µM [1, 6]: -17% | Area under the curve - 3D Mean ([2]; 3.7 µM): 139.0 % change from baseline | Peak Number—3D Mean ([2]; 3.7 µM): −0.4 % change from baseline | Peak amplitude - 3D Mean ([2]; 3.7 µM): 129.1 % change from baseline | Peak width - 3D Mean ([2]; 3.7 µM): 4.2 % change from baseline | Peak-to-peak interval - 3D Mean ([2]; 3.7 µM): 10.9 % change from baseline | Area under the curve - 3D Mean ([2]; 11.11 µM): 139.2 % change from baseline | Peak Number—3D Mean ([2]; 11.11 µM): 0.0 % change from baseline | Peak amplitude - 3D Mean ([2]; 11.11 µM): 138.1 % change from baseline | Peak width - 3D Mean ([2]; 11.11 µM): 0.3 % change from baseline | Peak-to-peak interval - 3D Mean ([2]; 11.11 µM): −2.2 % change from baseline | Area under the curve - 3D Mean ([2]; 33.33 µM): 147.8 % change from baseline | Peak Number—3D Mean ([2]; 33.33 µM): 10.0 % change from baseline | Peak amplitude - 3D Mean ([2]; 33.33 µM): 135.8 % change from baseline | Peak width - 3D Mean ([2]; 33.33 µM): 5.0 % change from baseline | Peak-to-peak interval - 3D Mean ([2]; 33.33 µM): −1.7 % change from baseline | Area under the curve - 3D Mean ([2]; 100 µM): 133.2 % change from baseline | Peak Number—3D Mean ([2]; 100 µM): −8.2 % change from baseline | Peak amplitude - 3D Mean ([2]; 100 µM): 123.5 % change from baseline | Peak width - 3D Mean ([2]; 100 µM): 4.7 % change from baseline | Peak-to-peak interval - 3D Mean ([2]; 100 µM): 6.7 % change from baseline | Free Cmax [3, 7]: 40 to 160 nM | Free Cmax ([3]; Table 2, highest plasma concentration in humans after the therapeutic dose): 40 to 160 nM
